Measurements from patent US4552898A, “[3.2.0]Bicycloheptanone oxime ethers with valuable therapeutic properties” (Syntex (U.S.A.) Inc., priority 1983, dated 1985).

Test system: not listed separately
Test: Acute toxicity in mice, single intraperitoneal administration
Set-up: species or system Male Sim: (SW)f BR mice
Settings: mouse, in vivo, ip
Protocol: Male Sim: (SW)f BR mice weighing approximately 25 g were randomly assigned to treatment groups of 6 animals, caged together, and were given food and water ad libitum.
The test material was prepared as an aqueous solution or suspension in CMC vehicle (sodium carboxymethyl cellulose, 0.5 g; sodium chloride, 0.9 g; benzyl alcohol, 0.9 ml; Tween 80, 0.4 ml; and water to 100 ml). The test material and the control vehicle were administered once by the indicated route at a dose level of 10 ml per kg body weight.
Following administration of the test material on day 1, animals were observed daily and any deaths were recorded.

SMILES | LD50 [mg/kg]
CCCCCC(O)C#CC1CC2C(=NOCCC(=O)O)CC2C1O (stereo not drawn) [Test Material] | > 120

Test system: human platelet-rich plasma
Test: In vitro human platelet aggregation inhibition (turbidimetric)
Format: cell-based
Settings: ADP inducer
Protocol: Biological activity of the claimed compounds is tested by in vitro human platelet aggregation assay. This assay determines the effectiveness of the compounds in inhibiting the platelet aggregation
Immediately thereafter, the platelets start to secrete large quantities of adenosine diphosphate (ADP) which, in turn activates the other platelets that adhere to the original platelets and eventually form the plug which closes the rupture of the vascular wall. In medical parlance the first process is called collagen-induced primary platelet aggregation, the second process is called ADP-mediated secondary platelet aggregation. This situation can be artificially simulated by natural platelet aggregation inducers such as collagen, ADP, or arachidonic acid to the human platelet-rich plasma.
The blood samples used for the assay are collected into sodium citrate anticoagulant of a final concentration of 0.38%. The platelet-rich plasma is collected after centrifugation at 200 rpm at room temperature. To determine whether the platelet-rich plasma needs dilution to obtain optimal optical density, citrated plasma containing […] platelets per milliliter is pipetted into a Spinco transparent plastic centrifuge tube. The tube is inserted into a Unicam SP 400 absorptiometer and the light at the wave-length of 600 mμ is passed through the tube. The dark current is set at infinity and the optical density of distilled water at zero. The plasma is stirred by a magnetic stirrer. If necessary, platelet-rich plasma is diluted with 0.154M sodium chloride to obtain appropriate optical density
Platelet-rich plasma of appropriate optical density is mixed with appropriate concentration of tested compounds to make up 1 ml of mixture of platelet-rich plasma and tested compound. The concentration of each tested compound varied from 1.0×10^-5 moles to 1.0×10^-9 moles. Each concentration is tested individually by number of repetitions varying from 1 to 6. Each sample mixture consisting of platelet-rich plasma and tested compound is incubated for about 3 to 5 minutes under constant stirring at 500 rpm at 30° C. Thereafter, a predetermined optimal concentration of platelet aggregation inducer is added to each sample mixture. Inducers which are used for testing may be chosen from: […]
Adenosine Diphosphate (ADP) is purchased from Sigma Chemical Company. ADP inducer solution of final concentration of 5 μmol is prepared by dissolving 214 mg of ADP in 1 ml of tris buffer (0.01M at pH 9 at 22° C.). […]
A tube with the mixture of platelet-rich plasma, tested compound and ADP inducer (5 μmol/10 μl) is inserted into the absorptiometer and optical density changes are recorded on chart. Aggregation of the platelets is determined from maximal optical density change. Maximal optical density of a mixture of platelet-rich plasma with inducer, but without the tested compounds, is taken as 100% of platelet aggregation. The maximal optical density of the sample mixture of platelet-rich plasma, ADP inducer and appropriate amount of tested compound is compared to the maximal optical density of the sample without tested compound and inhibitory effectiveness of tested compounds is calculated. For each sample the percentage of the platelet aggregation is calculated and if more than one measurement with the same concentration of the tested compounds are done, the final value is expressed as an average of all measurements with ±S.E. The inhibitory concentration is the effective concentration of tested compound which is able to prevent 50% of the platelet aggregation, where, without the tested compound, the platelet aggregation would have been 100%. PGE1 has an IC50 of 2-8×10^-8 M.

SMILES | IC50 [nM]
CCCCCC(O)C#CC1CC2C(=NOCC(=O)O)CC2C1O (stereo not drawn) [Compound 1, N--[2-endo-hydroxy-3-exo-(3αS--hydroxyoct-1-ynyl)bicyclo[3.2.0]hept-6-ylidene]aminooxyacetic acid] | 18.6
O=C(O)CON=C1CC2C1CC(/C=C/C(O)C1CCCC1)C2O (stereo not drawn) [Compound 5] | 11.2
CCCCCC(O)C#CC1CC2C(=NOCC(=O)O)CC2C1O (stereo not drawn) [Compound 11, N--[2-endo-hydroxy-3-exo-(3αβS--hydroxyoct-1-ynyl)bicyclo[3.2.0]hept-6-ylidene]aminooxyacetic acid] | 70
CCCCCC(O)C#CC1CC2C(=NOCCC(=O)O)CC2C1O (stereo not drawn) [Compound 12, N--[2-endo-hydroxy-3-exo-(3αS--hydroxyoct-1-ynyl)bicyclo[3.2.0]hept-6-ylidene]-3-aminooxypropionic acid] | 31
O=C(O)CCON=C1CC2C1CC(/C=C/C(O)C1CCCC1)C2O (stereo not drawn) [Compound 16, N--[2-endo-hydroxy-3-exo-(3α-hydroxy-3-cyclopentylprop-1-trans-enyl)bicyclo[3.2.0]hept-6-ylidene]-3-aminooxypropionic acid] | 10.5
O=C(O)CCON=C1CC2C1CC(/C=C/C(O)C1CCCCC1)C2O (stereo not drawn) [Compound 19, N--[2-endo-hydroxy-3-exo-(3α-hydroxy-3-cyclohexylprop-1-trans-enyl)bicyclo[3.2.0]hept-6-ylidene]-3-aminooxypropionic acid] | 81
CCCCCC(O)C#CC1CC2C(=NOCCC(=O)O)CC2C1O (stereo not drawn) [Compound 23, N--[2-endo-hydroxy-3-exo-(3-hydroxyoct-1-ynyl)bicyclo[3.2.0]hept-6-ylidene] -3-aminooxypropionic acid] | 175
CCCCCC(O)C#CC1CC2C(=NOCCC(=O)O)CC2C1O (stereo not drawn) [Compound 24, N--[2-endo-hydroxy-3-exo-(3αβS--hydroxyoct-1-ynyl)bicyclo[3.2.0]hept-6-ylidene]-3-aminooxypropionic acid] | 43

Same assay, conditions: Homo sapiens, Platelet, ADP inducer

SMILES | IC50 [nM]
CCCCCC(O)C=CC1CC2C(=NOCC(=O)O)CC2C1O (stereo not drawn) [Compound 2, N--[2-endo-hydroxy-3-exo-(3αS--hydroxyoct-1-trans-enyl)bicyclo[3.2.0]hept-6-ylidene]aminooxyacetic acid] | 89
CCCCCC(O)CCC1CC2C(=NOCC(=O)O)CC2C1O (stereo not drawn) [Compound 3, N--[2-endo-hydroxy-3-exo-(3αβS--hydroxyoct-1-yl)bicyclo[3.2.0]hept-6-ylidene]aminooxyacetic acid] | 1400
O=C(O)CON=C1CC2C1CC(C#CC(O)C1CCCC1)C2O (stereo not drawn) [Compound 4, N--[2-endo-hydroxy-3-exo-(3-hydroxy-3-cyclopentylprop-1-ynyl)bicyclo[3.2.0]hept-6-ylidene]aminooxyacetic acid] | 12.5
O=C(O)CON=C1CC2C1CC(CCC(O)C1CCCC1)C2O (stereo not drawn) [Compound 6, N--[2-endo-hydroxy-3-exo-(3-hydroxy-3-cyclopentylprop-1-yl)bicyclo[3.2.0]hept-6-ylidene]aminooxyacetic acid] | 1000
O=C(O)CON=C1CC2C1CC(C#CC(O)C1CCCCC1)C2O (stereo not drawn) [Compound 7, N--[2-endo-hydroxy-3-exo-(3-hydroxy-3-cyclohexylprop-1-ynyl)bicyclo[3.2.0]hept-6-ylidene]aminooxyacetic acid] | 24
O=C(O)CON=C1CC2C1CC(CCC(O)C1CCCCC1)C2O (stereo not drawn) [Compound 8, N--[2-endo-hydroxy-3-exo-(3-hydroxy-3-cyclohexylprop-1-yl)bicyclo[3.2.0]hept-6-ylidene]aminooxyacetic acid] | 88
CCCCCCCC(O)C#CC1CC2C(=NOCC(=O)O)CC2C1O (stereo not drawn) [Compound 9, N--[2-endo-hydroxy-3-exo-(3-hydroxydec-1-ynyl)bicyclo[3.2.0]hept-6-ylidene]aminooxyacetic acid] | 32
CCCCCC(O)C=CC1CC2C(=NOCCC(=O)O)CC2C1O (stereo not drawn) [Compound 13, N--[2-endo-hydroxy-3-exo-(3αS--hydroxyoct-1-trans-enyl)bicyclo[3.2.0]hept-6-ylidene]-3-aminooxypropionic acid] | 6.9
CCCCCC(O)CCC1CC2C(=NOCCC(=O)O)CC2C1O (stereo not drawn) [Compound 14, N--[2-endo-hydroxy-3-exo-(3αβS--hydroxyoct-1-yl)bicyclo[3.2.0]hept-6-ylidene]-3-aminooxypropionic acid] | 2200
O=C(O)CCON=C1CC2C1CC(C#CC(O)C1CCCC1)C2O (stereo not drawn) [Compound 15, N--[2-endo-hydroxy-3-exo-(3-hydroxy-3-cyclopentylprop-1-ynyl)bicyclo[3.2.0]hept-6-ylidene]-3-aminooxypropionic acid] | 31
O=C(O)CCON=C1CC2C1CC(CCC(O)C1CCCC1)C2O (stereo not drawn) [Compound 17, N--[2-endo-hydroxy-3-exo-(3-hydroxy-3-cyclopentylprop-1-yl)bicyclo[3.2.0]hept-6-ylidene]-3-aminooxypropionic acid] | 1020
O=C(O)CCON=C1CC2C1CC(C#CC(O)C1CCCCC1)C2O (stereo not drawn) [Compound 18, N--[2-endo-hydroxy-3-exo-(3-hydroxy-3-cyclohexylprop-1-ynyl)bicyclo[3.2.0]hept-6-ylidene]-3-aminooxypropionic acid] | 8.4
O=C(O)CCON=C1CC2C1CC(CCC(O)C1CCCCC1)C2O (stereo not drawn) [Compound 20, N--[2-endo-hydroxy-3-exo-(3-hydroxy-3-cyclohexylprop-1-yl)bicyclo[3.2.0]hept-6-ylidene]-3-aminooxypropionic acid] | 2350
CCCCCCCC(O)C#CC1CC2C(=NOCCC(=O)O)CC2C1O (stereo not drawn) [Compound 21, N--[2-endo-hydroxy-3-exo-(3-hydroxydec-1-ynyl)bicyclo[3.2.0]hept-6-ylidene]-3-aminooxypropionic acid] | 117
CCCCCCCC(O)CCC1CC2C(=NOCCC(=O)O)CC2C1O (stereo not drawn) [Compound 22, N--[2-endo-hydroxy-3-exo-(3-hydroxydec-1-yl)bicyclo[3.2.0]hept-6-ylidene]-3-aminooxypropionic acid] | 1300
CCCCCC(O)C#CC1CC2C(=NOCCCC(=O)O)CC2C1O (stereo not drawn) [Compound 25, N--[2-endo-hydroxy-3-exo-(3αβS--hydroxyoct-1-ynyl)bicyclo[3.2.0]hept-6-ylidene]-4-aminooxybutyric acid] | 420
CCCCCC(O)C#CC1C(O)CC2C(=NOCCC(=O)O)CC21 (stereo not drawn) [Compound 26, N--[3-endo-hydroxy-2-exo-(3αβS--hydroxyoct-1-ynyl)bicyclo[3.2.0]hept-6-ylidene]-3-aminooxypropionic acid] | 21000
CCCCCC(O)C#CC1C(O)CC2C(=NOCCCC(=O)O)CC21 (stereo not drawn) [Compound 27, N--[3-endo-hydroxy-2-exo-(3αβS--hydroxyoct-1-ynyl)bicyclo[3.2.0]hept-6-ylidene]-4-aminooxybutyric acid] | 1100
